Data published in patent US12473534B2, “Composition for culturing peripheral blood monocyte-derived regulatory t cell and regulatory T cell culturing method using same” (Immunisbio Co., Ltd., priority 2019, dated 2025).

Legend:
[1] = tested on: regulatory T cells derived from peripheral blood mononuclear cells; assay: Culturing of regulatory T cells from peripheral blood mononuclear cells with myricetin or superoxide dismutase, FACS analysis; assay type: cell-based, human; settings: for CD4+, CD25+, CD127− (%): flow cytometry; for Total number of cells: start 2.0×10^7 cells, control 20.8
Method: 30 mL to 60 mL of human peripheral blood was collected using a 10 mL heparinized vacuum blood collection tube (BD Vacutainer TM). Then, 15 mL of a solution of Ficoll-Paque Plus (endotoxin tested, density 1.077 g/mL, GE Healthcare, USA) was put into a 50 mL lymphocyte separation tube (Leucosep, Greiner Bio-One, Swiss), and the solution was allowed to precipitate down to a glass membrane in the tube by centrifugation at 2000 rpm. The collected blood was transferred to a separation tube and centrifuged at 2500 rpm to separate the erythrocytes and granulocyte layer at the bottom, and the mononuclear cell layer and platelets at the top, thereby separating the blood components. After centrifugation, the plasma in the separated upper layer was inactivated in a water bath at 56° C. for 30 minutes. After centrifugation, the separated lymphocyte layer was collected using a sterilized pipette and collected in a 15 mL tube. After the 15 mL tube with the collected lymphocytes were centrifuged, the supernatant was removed. Cells were washed by adding 10 mL of a buffer solution (PBS) to the lymphocytes from which the supernatant had been removed and suspending the cells. The number of cells was measured from some of the suspension using a hemocytometer, and only lymphocytes were collected by centrifuging again. In this case, the number of harvested lymphocytes was measured to be 20×10^6 cells in total, and the harvested lymphocytes were cultured according to Example 1 below. After the lymphocytes prepared in Experimental Example 1 were taken, the lymphocytes were cultured in a T-flask (SPL Life Sciences) containing a culture solution and 0.2 to 2 mL of plasma in a 5% CO2 incubator at 37° C. for 4 to 14 days. Furthermore, in order to induce a reaction with an activation receptor present on the cell surface of regulatory T cells, 0.001 to 0.03 of one or more antibodies selected from the group consisting of anti-CD2, anti-CD3, anti-CD7, anti-CD8, anti-CD28, anti-CD30L, anti-CD40, anti-CD70, anti-CD80, anti-CD83 and anti-CD86; one or more cytokines selected from the group consisting of interleukin-2, interleukin-4, interleukin-7, interleukin-12, interleukin-15, interleukin-34 and TGF-β; 0 to 250 μM of myricetin; and 0 to 50 μM of superoxide dismutase were administered. That is, lymphocytes measured to be a total number of 2.0×10^7 cells were added to 5 to 100 mL of KBM502 medium including the above-described plasma, antibodies, cytokines, myricetin and superoxide dismutase, and cultured in a CO2 incubator for 4 to 14 days. To confirm the differentiation of regulatory T cells, staining was performed with an anti-human antibody or mouse isotype antibody (BD-Pharmingen San Jose, USA) under a condition of CD4+, CD25+ and CD127−, which are surface proteins of regulatory T cells, measured by flow cytometry, and then analyzed using BD Accuri C6 Plus.

[2] = tested on: regulatory T cells derived from peripheral blood mononuclear cells after removal of CD8+ cells; assay: Culturing of regulatory T cells with myricetin and superoxide dismutase only or in combination after removal of CD8, FACS analysis; assay type: cell-based, human; settings: for Total number of cells: control 18.2
Method: After the lymphocytes prepared in Experimental Example 1 were taken, the lymphocytes were cultured in a T-flask (SPL Life Sciences) containing a culture solution and 0.2 to 2 mL of plasma in a 5% CO2 incubator at 37° C. for 4 to 14 days. Furthermore, in order to induce a reaction with an activation receptor present on the cell surface of regulatory T cells, 0.001 to 0.03 of one or more antibodies selected from the group consisting of anti-CD2, anti-CD3, anti-CD7, anti-CD8, anti-CD28, anti-CD30L, anti-CD40, anti-CD70, anti-CD80, anti-CD83 and anti-CD86; one or more cytokines selected from the group consisting of interleukin-2, interleukin-4, interleukin-7, interleukin-12, interleukin-15, interleukin-34 and TGF-β; 0 to 250 μM of myricetin; and 0 to 50 μM of superoxide dismutase were administered. That is, lymphocytes measured to be a total number of 2.0×10^7 cells were added to 5 to 100 mL of KBM502 medium including the above-described plasma, antibodies, cytokines, myricetin and superoxide dismutase, and cultured in a CO2 incubator for 4 to 14 days. After peripheral blood mononuclear cells were separated, the cells were suspended in MACS buffer from Miltenyi Biotec and reacted with Human CD8 MicroBeads, and then CD8+ cells were removed using an LD column in a QuadroMACS Separator. Then, the cells were cultured using the same culturing method as in Example 1, and treated with myricetin and superoxide dismutase by selecting the treatment concentration having the highest regulatory T cell distribution in Example 1. To confirm the differentiation of regulatory T cells, staining was performed with an anti-human antibody or mouse isotype antibody (BD-Pharmingen San Jose, USA) under a condition of CD4+, CD25+ and CD127−, which are surface proteins of regulatory T cells, measured by flow cytometry, and then analyzed using BD Accuri C6 Plus.

[3] = Day 0, after removal of CD8, flow cytometry
[4] = Day 7 of culture, after removal of CD8
[5] = Day 7 of culture, after removal of CD8, control 92.3

Row | Compound | CD4+, CD25+, CD127− (%) ([1]; Day 0, before culture) | CD4+, CD25+, CD127− (%) ([1]; Day 7 of culture, control 18.0) | Total number of cells ([1]; Day 7 of culture) | CD4+, CD25+, CD127− (%) [2, 3] [%] | Total number of cells [2, 4] | CD4+, CD25+, CD127− (%) [2, 5] [%]
1 | O=c1c(O)c(-c2cc(O)c(O)c(O)c2)oc2cc(O)cc(O)c12 [M1, myricetin] | 2.1 | 22.4 | 26.8 ×10^7 cells |  |  | 
2 | O=c1c(O)c(-c2cc(O)c(O)c(O)c2)oc2cc(O)cc(O)c12 [M2, myricetin] | 2.1 | 22.9 | 26.7 ×10^7 cells |  |  | 
3 | O=c1c(O)c(-c2cc(O)c(O)c(O)c2)oc2cc(O)cc(O)c12 [M3, myricetin] | 2.1 | 24.7 | 28.6 ×10^7 cells | 0.4 | 20.8 ×10^7 cells | 97.6
4 | O=c1c(O)c(-c2cc(O)c(O)c(O)c2)oc2cc(O)cc(O)c12 [M4, myricetin] | 2.1 | 23.3 | 25.6 ×10^7 cells |  |  | 
5 | superoxide dismutase [S1] | 1.2 | 37.4 | 22.5 ×10^7 cells | 0.7 | 21.5 ×10^7 cells | 97.6
6 | superoxide dismutase [S2] | 1.2 | 37.1 | 25.2 ×10^7 cells |  |  | 
7 | superoxide dismutase [S3] | 1.2 | 36.0 | 24.4 ×10^7 cells |  |  | 
